From PMC12684391, “Mechanistic insights into the monotherapy and combination potential of FEN1 inhibition in cancer therapy” (Nucleic Acids Research, 2025)

What was measured:
GEN1 = target: T1, GEN1 (Homo sapiens, UniProt Q17RS7); assay: Fluorescence-based nuclease activity assay, GEN1; type: biochemical; details: n = 11, SD = 569; cognate substrate
T1 construct: Truncated GEN1 (1-527) was expressed in insect cells; Strep-tag (implied by Streptrap column); made in house; host or cells: insect cells
T1 sequence (Q17RS7 1-527): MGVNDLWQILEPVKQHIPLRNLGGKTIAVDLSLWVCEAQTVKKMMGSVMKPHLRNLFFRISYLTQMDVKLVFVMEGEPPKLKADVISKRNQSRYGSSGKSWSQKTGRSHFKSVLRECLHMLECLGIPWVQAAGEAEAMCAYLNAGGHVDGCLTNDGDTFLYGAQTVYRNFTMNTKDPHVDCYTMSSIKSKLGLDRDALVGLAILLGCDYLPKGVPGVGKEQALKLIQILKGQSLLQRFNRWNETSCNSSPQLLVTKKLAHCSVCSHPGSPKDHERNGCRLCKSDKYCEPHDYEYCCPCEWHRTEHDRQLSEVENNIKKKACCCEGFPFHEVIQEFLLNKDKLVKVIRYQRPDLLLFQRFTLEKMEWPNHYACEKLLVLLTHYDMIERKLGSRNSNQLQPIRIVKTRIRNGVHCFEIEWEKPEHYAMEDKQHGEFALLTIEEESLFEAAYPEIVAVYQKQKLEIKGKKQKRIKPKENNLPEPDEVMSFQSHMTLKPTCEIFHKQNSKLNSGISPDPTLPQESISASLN
Protocol: (§1) MSC778 was dissolved in dimethyl sulphoxide (DMSO) to give a 10 mM stock. FEN1/EXO1: compound was dispensed into black 384-shallow well microplates (Greiner #784076). The compound was dispensed as an 11-point dose response with a 3-fold serial dilution from a top concentration of 10 mM (to give a final in-assay concentration of 100 µM). GEN1/XPG: MSC778 was dispensed into black 1536-well plates (Greiner #782076). The compound was dispensed as a 20-point dose response with a 3-fold serial dilution from a top concentration of 10 mM (to give a final in-assay concentration of 100 µM). The volume of DMSO was adjusted to ensure that each well contained 1% (v/v) DMSO in the final assay. Control wells containing DMSO alone or inhibitor at sufficient concentration to cause complete inhibition of the reaction were also included. […]
(§2) 5 µl (FEN1/EXO1) or 3 µl per well (GEN1/XPG) of stop buffer (20 mM Tris pH 7.5, 300 mM EDTA) was added to all wells, then the plates were read on the CLARIOstar Plus (BMG LABTECH Ltd.) using the Fluorescein (FITC) wavelengths (Ex 483 ± 14, Em 530 ± 30, Dichroic auto/502.5) and auto focal height/gain settings.
(§3) All data analysis was carried out using Genedata Screener software. IC50 values were calculated using the SmartFit function.

HAP1 USP1KO cells = assay: Cell viability assay (CTG), 7 days; type: cell-based; details: two independent USP1KO lines
Protocol: Cells were seeded in 150 μl of media in 96-well plates or in 70 μl of media in 384-well plates pre-dosed with compounds (8–10 points dose response) with a D300e digital dispenser (Tecan) and incubated for 24 h at 37°C and 5% CO2. Cell proliferation at the end of the assay (7 days) was measured using CTG (Promega, G9243). CTG luminescence was normalized to vehicle treated control for each cell line, and data were fitted with a nonlinear regression curve (four parameters) to generate compound sensitivity curves and determine IC50 or EC50 (half maximal inhibitory/effective concentration) values as indicated.

[1] = tested on: MMEJ (resection dependent reporter); assay: Extrachromosomal MMEJ reporter assay, resection dependent, HEK-293; type: cell-based; details: Homo sapiens, HEK293, HEK-293, 24 h, read-out: MMEJ inhibition EC50
Protocol: MMEJ resection-independent and MMEJ resection-dependent reporter assays performed as previously described. In brief, HEK-293 cells were resuspended in supplemented SF nucleofection solution (Lonza) containing nanoluciferase DNA substrate and Firefly luciferase plasmid (Promega) at a ratio of 100 μl SF: 1500 ng nanoluciferase substrate: 1000 ng Firefly plasmid: ∼1.5 × 10^6 cells. Cells were electroporated and recovered into fresh media before seeding into a 96-well plate pre-dosed with compounds and DMSO control.
After 24 h, Firefly and NanoLuc levels were detected using the Nano-Glo® Dual-Luciferase® Reporter Assay system (Promega) as per the manufacturer’s instructions. NanoLuc luminescence (reporter) was normalized to Firefly luminescence (control) to determine substrate repair. Percentage repair was calculated relative to the DMSO control.

[2] = tested on: DLD-1, DLD-1 BRCA2KO, SUM149PT, MDA-MB-436 cells; assay: Flow cytometric analysis of apoptosis (annexin V/PI); type: cell-based; details: 1 μM, 72 h
Protocol: (§4) Apoptosis was measured using annexin V and propidium iodide (PI) staining using an Annexin V-fluorescein isothiocyanate (FITC) apoptosis detection kit (Thermo Fisher Scientific, V13242) according to manufacturer’s instructions.
(§5) Briefly, cells were cultured in six-well plates and treated with FEN1 inhibitor at indicated concentrations for 72 h. The supernatant and adherent cells were collected and washed twice with ice-cold PBS, then re-suspended in 100 µl of 1× binding buffer. Annexin V-FITC conjugate (5 µl) and PI (1 µl) were added, and the cells were incubated at room temperature for 15 min in the dark. After addition of 300 µl of 1× binding buffer, the cells were analyzed using a flow cytometer (CytoFLEX, Beckman).

U-2 OS cells = assay: as above; type: cell-based; details: 0.1 μM, 72 h
Protocol: as §4, §5

[3] = tested on: EWS cells (MHH-ES-1, RD-ES); assay: as above; type: cell-based; details: 0.1 μM, 72 h
Protocol: as §4, §5

FEN1 = target: T2, FEN1 (Homo sapiens, UniProt P39748); assay: Fluorescence-based 5′-flap cleavage assay of FEN1 nuclease activity; type: biochemical
T2 construct: Full-length FEN1 (1-380) was expressed in Escherichia coli; 6His; made in house; host or cells: Escherichia coli
T2 sequence (P39748 whole entry): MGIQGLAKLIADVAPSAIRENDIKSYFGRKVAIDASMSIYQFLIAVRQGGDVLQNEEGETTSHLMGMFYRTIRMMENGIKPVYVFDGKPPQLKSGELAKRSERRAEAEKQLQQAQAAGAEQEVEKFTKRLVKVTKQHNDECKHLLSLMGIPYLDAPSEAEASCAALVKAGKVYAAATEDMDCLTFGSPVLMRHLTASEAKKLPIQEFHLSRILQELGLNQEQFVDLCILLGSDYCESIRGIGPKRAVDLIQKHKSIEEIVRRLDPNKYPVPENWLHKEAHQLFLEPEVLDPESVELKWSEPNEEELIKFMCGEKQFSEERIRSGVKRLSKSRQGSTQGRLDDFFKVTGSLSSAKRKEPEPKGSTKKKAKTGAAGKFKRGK
Protocol: as §1, with “assay.” for “assay. Control wells containing DMSO alone or inhibitor at sufficient concentration to cause complete inhibition of the reaction were also included.”
as §2, §3
A fluorescence-based 5′-flap cleavage assay, in which quenching of the fluorescence of a fluorescein amidite (FAM) moiety is alleviated by nucleolytic cleavage, was used to measure the nuclease activity of FEN1 (Fig. 1B and Supplementary Fig. S1A). […]

With `C[C@H](Oc1nn2c(c(O)c1=O)C(=O)N1CCOC[C@@H]1C2)c1ccc2ccc(Cl)cc2c1` [MSC778] the IC50 (GEN1) was 1660 nM, the “Sensitization of USP1KO cell lines compared to isogenic HAP1 WT cells” value (HAP1 USP1KO cells) was 3 fold and the EC50 [1] was 840 nM. For the same compound, the “Induction of cell death” value [2] was “induced cell death by apoptosis”, the “Induction of apoptotic cell death” value (U-2 OS cells) was “not” and the “Induction of cell death” value [3] was “induced apoptotic cell death”. The “Potency on FEN1 nuclease activity relative to MSC781” value (FEN1; more potent than MSC781) was 16 fold and the IC50 (FEN1; n = 3, SD = 0.14, cognate 5′ flap substrate) was 3.2 nM.
